Columns and labels:
Cytotoxicity assay, MEF = assay type: cell-based; conditions: mouse, MEF cells (embryonic fibroblasts), maximum concentration 100 μM
Method: (§1) To measure the cytotoxicity of the compound represented by Chemical Formula 1 (Chemical Formula 1-1), toxicity was measured in mouse preadipocyte 3T3-L1 cell line, human malignant melanoma A375 cell line, mouse malignant melanoma B16F10 cell line, human oral cancer MDA-MB-435 cell line, mouse breast cancer 4T1 cell line, human breast cancer MCF7 cell line, human brain cancer U87MG cell line, human glioblastoma U373MG cell line, human cervical cancer HeLa cell line, mouse embryonic fibroblast (MEF) cell line, human embryonic kidney HEK293T cell line (Korea Cell Line Bank). First, 1×10^4 cells were divided into 200 μl each in a 96-well plate using Dulbecco's Modified Eagle's Medium (DMEM) supplemented with 10% fetal bovine serum (FBS), […] streptomycin, and 50 U/ml penicillin, while maintaining various cells at 37r in an atmosphere of 5% CO2. The cells were treated with the compound of Chemical Formula 1-1 of the present invention at a maximum concentration of 100 μM and cultured for 48 hours under the same culture conditions. After the incubation, the culture media were removed and the cytotoxicity test results were confirmed (Table 2 and FIG. 3 below).

[1] = Cytotoxicity assay, HEK293T; assay type: cell-based; conditions: human, HEK293T cells (embryonic kidney), maximum concentration 100 μM
Method: as §1

[2] = test system: Wnt activity (HEK293T-TopFLASH cells); assay: TopFLASH luciferase assay, HEK293T-TopFLASH stable cell line (Wnt3a activity assay); assay type: cell-based, human; conditions: 1-50 μM, 24 hours
Method: In order to measure the level of Wnt activity of the compound of Chemical Formula 1-1, TopFLASH luciferase assay was performed on the HEK293T cell line. The TopFLASH luciferase assay was performed by creating a HEK293T-TopFLASH stable cell line with a viral vector made by combining Luciferase (reporter gene) with the TCF7 promoter. HEK293T-TopFLASH cells were cultured in a 96-well plate (1×10^4 cells/well), and the next day, the cells were treated with 1-50 μM of the compound of Chemical Formula 1-1 and confirmed by One-Glo™ (modified luciferin, Pormega, USA) after 24 hours.

[3] = test system: osteogenic differentiation-related genes (mCol1a1, mOsteocalcin, mOsterix); assay: RT-PCR of osteogenic differentiation-related genes; assay type: cell-based, mouse; conditions: Day 7 of differentiation, FIG. 17
Text: In order to confirm the effect of the compound of Chemical Formula 1 according to the present invention on promoting osteogenic differentiation-related genes, the expression levels of genes promoting osteogenesis were confirmed.
To confirm genetic changes during the differentiation process, total RNA was isolated on Day 7 of differentiation using Trizol reagent (Invitrogen, CA, USA) according to the manufacturer's instructions. The cultured cells were washed twice with cold PBS and lysed with 1 ml of Trizol reagent. To the resulting product, 200 μl of chloroform was added and mixed, followed by centrifugation at 4° C. and 12000 rpm for 20 minutes to separate the supernatant. The same amount of isopropanol was added to the separated supernatant, mixed, and centrifuged again at 4° C. and 12000 rpm. The supernatant was removed, and the remaining pellet was washed three times with 70% ethanol to separate RNA. For RT-PCR, the same amount of total RNA (5 μl) was put into the RT-PCR amplification kit and reacted at 45° C. for 60 minutes to prepare complementary DNA (cDNA). RT-PCR was performed on the cDNA by using AccuPower®RT/PCR PreMix (Bioneer, Korea). Briefly, 2 μl each of 75 mM rATP, rUTP, rCTP, rGTP, enzyme mixture, and 10× reaction buffer was added to 8 μl of the cDNA solution prepared above, followed by amplification according to the manufacturer's instructions, and the quantity and quality of the amplified mRNA was evaluated using nanodrops and 1% agarose gel electrophoresis.

## CC(C)CC1NC(=O)C2CCCN2C(=O)C(C(O)C(C)C)NC(=O)CNC(=O)C(C(C)O)NC(=O)C2NC(=O)C(NC(=O)/C=C/c3ccccc3C(O)C(C)O)C(C)OC(=O)C(CC(N)=O)NC(=O)C(NC(=O)C(O)NC1=O)C(O)c1ccc(O)c(c1)Oc1ccc2cc1 (stereo not shown) [Chemical Formula 1-1]
Cytotoxicity assay, MEF
  IC50 at 48 h: > 100 µM
[1]
  IC50 at 48 h: > 100 µM
[2]; compound alone, FIG. 4
  Wnt activity (luciferase values): greatly increased
[2]; simultaneous treatment with Wnt3a-conditional media (2.5%), FIG. 5
  Wnt activity (luciferase values): greatly increased
[3]
  mRNA expression level of mCol1a1: increase
  mRNA expression level of mOsteocalcin: increase
  mRNA expression level of mOsterix: increase
